Patent US10759779B2, “Crystalline form of orexin receptor antagonist, processes for preparation thereof and use thereof” (priority 2017, dated 2020)

Tests used:
Assay type in all cases: physicochemical
[1] = Flowability (bulk/tapped density, compressibility index); conditions: for Compressibility index: c=(ρf−ρ0)/ρf*100%; for Flowability: class by compressibility index
Description: Compressibility, also known as compressibility index is usually used to evaluate the flowability of powder and granular intermediates during the formulation process. A certain amount of powder was added into a measuring cylinder and bulk volume was recorded. Then the measuring cylinder was tapped to make the powder in the tightest state and the tapped volume was recorded. The bulk density (ρ0), tapped density (ρf) were calculated, and compressibility index was calculated according to c=(ρf−ρ0)/ρf. Compressibility index or Carr Index is an important indicator for evaluating the flowability of powder.
Compressibility index test method is as follows: Compressibility index was calculated according to bulk density ρ0 and tapped density ρf of Form CS2 and the amorphous solid of the prior art with c=(ρf−ρ0)/ρf*100%.

[2] = Compressibility (tablet hardness, tensile strength)
Description: 80 mg of Form CS2 was weighted and added into the dies of φ6 mm round tooling, compressed at 10 KN. The round tablet was stored in a desiccator for 24 hours until complete elastic recovery. Hardness (H) was tested with a tablet hardness tester. Diameter (D) and thickness (L) were tested with caliper. Tensile strength of the powder was calculated with the following formula: T=2H/πDL. Under a certain force, the greater the tensile strength, the better the compressibility.

[3] = Adhesiveness (material sticking to the punch); conditions: 30 mg, φ8 mm round tooling, 10 KN, 30s
Description: 30 mg of Form CS2 was weighed and added into the dies of φ8 mm round tooling, tableted at 10 KN and held for 30s. The amount of material sticking to the punch was weighed. The compression was repeated twice and the cumulative amount, maximum amount and average amount of material sticking to the punch during the compression process were recorded.

[4] = Hygroscopicity by dynamic vapor sorption (DVS)
Description: Thermo gravimetric analysis (TGA) data in the present disclosure were acquired by a TA Q500. The parameters of the TGA method of the present disclosure were as follows: • Heating rate: 10° C./min • Purge gas: nitrogen • Dynamic Vapor Sorption (DVS) is measured via a SMS (Surface Measurement Systems Ltd.) intrinsic DVS instrument. Typical Parameters for DVS test are as follows: • Temperature: 25° C. • Gas and flow rate: N2, 200 mL/min • dm/dt: 0.002%/min • RH range: 0% RH to 95% RH
Dynamic vapor sorption (DVS) was applied to measure hygroscopicity of Form CS2 with about 10 mg of samples. The weight gains at each relative humidity were recorded in a cycle of 0-95%-0 RH. The XRPD pattern overlay of Form CS2 before and after DVS test is presented in FIG. 14 (top: XRPD pattern before DVS; bottom: XRPD pattern after DVS). […] The weight gain under 80% RH is 0.21%.

[5] = Grinding stability of Form CS2; conditions: ground manually for 5 minutes in a mortar, XRPD
Description: Form CS2 was ground manually for 5 minutes in a mortar. The XRPD pattern of the solids before and after grinding are presented in FIG. 12 (top: XRPD pattern before grinding; bottom: XRPD pattern after grinding). […] Form CS2 has good grinding stability.

[6] = 80 mg tablet, φ6 mm, 10 KN, after 24 hours

SMILES | Bulk density (ρ0) [1] [g/mL] | Tapped density (ρf) [1] [g/mL] | Compressibility index [1] [%] | Flowability [1] | Diameter [2, 6] [mm] | Hardness [2, 6] [N] | Thickness [2, 6] [mm] | Tensile strength ([2]; T=2H/πDL) [MPa] | Average amount of material sticking to the punch [3] [mg] | Cumulative amount of material sticking to the punch [3] [mg] | Maximum amount of material sticking to the punch [3] [mg] | Weight gain under 80% Relative Humidity ([4]; DVS, 25° C.) [%] | Crystalline form after DVS ([4]; cycle of 0-95%-0 RH, XRPD) | Crystalline form after grinding [5]
Cc1ncc(OC[C@@]2(c3cccc(F)c3)C[C@H]2C(=O)Nc2ccc(F)cn2)c(C)n1 [Amorphous solid, (1R,2S)-2-{[(2,4-dimethylpyrimidin-5-yl)oxy]methyl}-2-(3-fluorophenyl)-N-(5-fluoropyridin-2-yl)cyclopropanecarboxamide, reference compound] | 0.196 | 0.274 | 28 | Poor |  |  |  |  |  |  |  |  |  | 
Cc1ncc(OC[C@@]2(c3cccc(F)c3)C[C@H]2C(=O)Nc2ccc(F)cn2)c(C)n1 [Form CS2, (1R,2S)-2-{[(2,4-dimethylpyrimidin-5-yl)oxy]methyl}-2-(3-fluorophenyl)-N-(5-fluoropyridin-2-yl)cyclopropanecarboxamide] | 0.263 | 0.351 | 25 | Passable (21-25) | 6.06 | 8.4 | 2.40 | 0.37 | 0.22 | 0.44 | 0.74 | 0.21 | does not change after DVS | does not change after grinding
